Patent US6461997B1, “Triazole sulfones having herbicidal activity” (Monsanto Technology LLC, priority 1999, dated 2002)

Experiments:
[1] = system: SOLNI (black nightshade); test: Pre-emergence herbicidal activity, warm season; assay type: in vivo, Solanum nigrum; conditions: GR80 = lowest tested rate (300, 100, 30, 10 g/ha) with 80% or greater inhibition; approx. 14 days after treating; 30/21° C.
Procedure, shortened: (§1)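 Seeds sown in sterilised fertilised topsoil received surface-applied compound in 50:50 acetone/water, typically at 300, 100, 30 and 10 g/ha, then greenhouse-grown at 30/21° C (warm-season species) or 18/13° C (cool-season species). Percent inhibition versus untreated plants was scored at about 14 days, giving GR80; an asterisk marks activity short of 80% at the top rate.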

[2] = system: ECHCG (barnyardgrass); test: Pre-emergence herbicidal activity, warm season; assay type: in vivo, Echinochloa crus-galli; conditions: GR80 = lowest tested rate (300, 100, 30, 10 g/ha) with 80% or greater inhibition; approx. 14 days after treating; 30/21° C.
Procedure, shortened: (§2)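 GR80 values derive from percent inhibition relative to untreated plants, read roughly 14 days after sowing and pre-emergence soil-surface treatment (compound in 50:50 acetone/water; rates typically 10, 30, 100, 300 g/ha). Warm-season weeds grew at 30/21° C day/night, cool-season ones at 18/13° C; an asterisk marks activity without reaching 80% at the highest rate.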

[3] = system: PANMI (wild proso millet); test: Pre-emergence herbicidal activity, warm season; assay type: in vivo, Panicum miliaceum; conditions: GR80 = lowest tested rate (300, 100, 30, 10 g/ha) with 80% or greater inhibition; approx. 14 days after treating; 30/21° C.
Procedure, shortened: (§3)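 Seeds were sown in sterilized, fertilized topsoil, covered, and the soil surface was sprayed with compound in 50:50 acetone/water at 300, 100, 30 and 10 g/ha. Pots were held at 30/21 °C day/night (PANMI, DIGSA) or 18/13 °C (ALOMY, POLCO). GR80 came from percent inhibition versus untreated plants at about 14 days.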

[4] = system: SETFA (giant foxtail); test: Pre-emergence herbicidal activity, warm season; assay type: in vivo, Setaria faberi; conditions: GR80 = lowest tested rate (300, 100, 30, 10 g/ha) with 80% or greater inhibition; approx. 14 days after treating; 30/21° C.
Procedure, shortened: as §2

[5] = system: PANDI (fall panicum); test: Pre-emergence herbicidal activity, warm season; assay type: in vivo, Panicum dichotomiflorum; conditions: GR80 = lowest tested rate (300, 100, 30, 10 g/ha) with 80% or greater inhibition; approx. 14 days after treating; 30/21° C.
Description: (§4) Tables 5 to 8 summarize results of tests conducted as described below to determine the pre-emergence herbicidal activity, in the form of a GR80 value, of illustrative compounds of this invention. […] Compounds of the invention were typically applied at rates of 300, 100, 30, and 10 g/ha. Where herbicidal activity was evident but 80% inhibition was not achieved at the highest rate tested, an asterisk (*) is shown in the following tables.
(§5) The pre-emergence tests were conducted by the following procedure. Topsoil was sieved to pass through a 1.27 cm screen. Fertilizer was added to the topsoil and the mixture was then sterilized by heating. The topsoil mixture was placed in a pot and compacted to a depth of 1.0 to 1.25 cm from the top of the pot. Seeds of each of several monocotyledonous and dicotyledonous annual plant species were placed on top of the soil. Additional soil was subsequently placed over the seeds to level-fill the pot. A known amount of each test compound dissolved or suspended in an appropriate organic solvent was diluted with a 50:50 mix of acetone and water and applied to the surface of the soil. After treatment the plants were placed in a greenhouse where they received 0.64 cm of overhead irrigation. All subsequent watering consisted of a light overhead mist and/or subirrigation as needed for germination and growth. Tables 5 and 6 below relate to warm season plant species which were placed after pre-emergence treatment in a greenhouse with a 30/21° C. day/night temperature regime. Tables 7 and 8 below relates to cool season plant species placed after pre-emergence treatment in a greenhouse or growth chamber with an 18/13° C. day/night temperature regime.
(§6) Approximately 14 days after planting and treating, the plants were observed and herbicidal efficacy recorded as percent inhibition by comparison with untreated plants.
(§7) The plant species usually regarded as weeds which were utilized in the tests are identified in the tables below according to the following legend, in which “d” indicates a dicotyledonous species and “m” a monocotyledonous species. All monocotyledonous species included in the tests herein are grasses.

[6] = system: GALAP (catchweed bedstraw); test: Pre-emergence herbicidal activity, cool season; assay type: in vivo, Galium aparine; conditions: lowest tested rate with 80% or greater inhibition; rates 300, 100, 30, 10 g/ha; about 14 days
Procedure, shortened: as §1

[7] = system: POLCO (wild buckwheat); test: Pre-emergence herbicidal activity, cool season; assay type: in vivo, Polygonum convolvulus; conditions: lowest tested rate with 80% or greater inhibition; rates 300, 100, 30, 10 g/ha; about 14 days
Procedure, shortened: as §3

[8] = system: SINAR (wild mustard); test: Pre-emergence herbicidal activity, cool season; assay type: in vivo, Sinapis arvensis; conditions: lowest tested rate with 80% or greater inhibition; rates 300, 100, 30, 10 g/ha; about 14 days
Procedure, shortened: as §1

[9] = system: VERPE (creeping speedwell); test: Pre-emergence herbicidal activity, cool season; assay type: in vivo, Veronica persicaria; conditions: lowest tested rate with 80% or greater inhibition; rates 300, 100, 30, 10 g/ha; about 14 days
Procedure, shortened: as §1

[10] = system: SASKR (russian thistle); test: Pre-emergence herbicidal activity, cool season; assay type: in vivo, Salsola kali; conditions: lowest tested rate with 80% or greater inhibition; rates 300, 100, 30, 10 g/ha; about 14 days
Procedure, shortened: as §1

[11] = system: STEME (common chickweed); test: Pre-emergence herbicidal activity, cool season; assay type: in vivo, Stellaria media; conditions: lowest tested rate with 80% or greater inhibition; rates 300, 100, 30, 10 g/ha; about 14 days
Procedure, shortened: as §1

[12] = system: LAMPU (purple deadnettle); test: Pre-emergence herbicidal activity, cool season; assay type: in vivo, Lamium purpureum; conditions: lowest tested rate with 80% or greater inhibition; rates 300, 100, 30, 10 g/ha; about 14 days
Procedure, shortened: as §1

[13] = system: ALOMY (blackgrass); test: Pre-emergence herbicidal activity, cool season; assay type: in vivo, Alopecurus myosuroides; conditions: GR80 = lowest tested rate (300, 100, 30, 10 g/ha) with 80% or greater inhibition; approx. 14 days after treating; 18/13° C.
Procedure, shortened: as §3

[14] = system: SETVI (green foxtail); test: Pre-emergence herbicidal activity, cool season; assay type: in vivo, Setaria viridis; conditions: GR80 = lowest tested rate (300, 100, 30, 10 g/ha) with 80% or greater inhibition; approx. 14 days after treating; 18/13° C.
Procedure, shortened: as §1

[15] = system: LOLMG (annual ryegrass); test: Pre-emergence herbicidal activity, cool season; assay type: in vivo, Lolium multiflorum; conditions: GR80 = lowest tested rate (300, 100, 30, 10 g/ha) with 80% or greater inhibition; approx. 14 days after treating; 18/13° C.
Procedure, shortened: as §1

[16] = system: BROTE (downy brome); test: Pre-emergence herbicidal activity, cool season; assay type: in vivo, Bromus tectorum; conditions: GR80 = lowest tested rate (300, 100, 30, 10 g/ha) with 80% or greater inhibition; approx. 14 days after treating; 18/13° C.
Description: as §4, §5, §6, §7

[17] = system: AGSST (creeping bentgrass); test: Pre-emergence herbicidal activity, cool season; assay type: in vivo, Agrostis stolonifera; conditions: GR80 = lowest tested rate (300, 100, 30, 10 g/ha) with 80% or greater inhibition; approx. 14 days after treating; 18/13° C.
Procedure, shortened: as §1

[18] = system: AGRRE (quackgrass (seedling)); test: Pre-emergence herbicidal activity, cool season; assay type: in vivo, Elymus repens; conditions: GR80 = lowest tested rate (300, 100, 30, 10 g/ha) with 80% or greater inhibition; approx. 14 days after treating; 18/13° C.
Description: as §4, §5, §6, §7

CCSC(F)(F)S(=O)(=O)c1ncn(C(=O)N(C)CCOC)n1 [Example 52]
[empty]: Pre-emergence activity GR80, GALAP [6] | Pre-emergence activity GR80, POLCO [7] | Pre-emergence activity GR80, STEME [11] | Pre-emergence activity GR80, LAMPU [12]
30 g/ha: Pre-emergence activity (GR80) PANDI [5] | Pre-emergence activity GR80, VERPE [9]
100 g/ha: Pre-emergence activity (GR80) PANMI [3] | Pre-emergence activity GR80, SASKR [10] | Pre-emergence activity (GR80) AGRRE [18]
300 g/ha: Pre-emergence activity (GR80) SOLNI [1] | Pre-emergence activity (GR80) ECHCG [2] | Pre-emergence activity (GR80) SETFA [4] | Pre-emergence activity GR80, SINAR [8] | Pre-emergence activity (GR80) ALOMY [13] | Pre-emergence activity (GR80) SETVI [14] | Pre-emergence activity (GR80) LOLMG [15] | Pre-emergence activity (GR80) BROTE [16] | Pre-emergence activity (GR80) AGSST [17]
